Experimental data taken from US9725445B2, “Cycloalkyl nitrile pyrazolo pyridones as Janus kinase inhibitors” (Merck Sharp & Dohme Corp., priority 2013, dated 2017).
Like-named read-outs stand apart in the source and are kept apart here.

How the values were obtained:
[1] = target: JAK2 (Homo sapiens (Human), UniProt O60674); experiment: Jak biochemical HTRF assay, JAK2; conditions: recombinant GST-tagged catalytic domain
[2] = target: JAK1 (Homo sapiens (Human), UniProt P23458); experiment: Jak biochemical HTRF assay, JAK1; conditions: recombinant GST-tagged catalytic domain
[3] = HTRF biochemical assay, read-out: JAK2 IC50
[4] = HTRF biochemical assay, read-out: JAK1 IC50

Sequence of JAK1 (P23458 875-1153): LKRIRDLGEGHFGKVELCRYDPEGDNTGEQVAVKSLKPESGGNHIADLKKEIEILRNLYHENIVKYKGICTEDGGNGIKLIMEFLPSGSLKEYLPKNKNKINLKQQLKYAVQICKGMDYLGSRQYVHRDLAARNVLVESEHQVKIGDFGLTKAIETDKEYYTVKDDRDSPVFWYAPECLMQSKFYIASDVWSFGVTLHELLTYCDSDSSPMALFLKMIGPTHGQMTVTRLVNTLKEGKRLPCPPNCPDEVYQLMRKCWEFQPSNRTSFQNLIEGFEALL
Sequence of JAK2 (O60674 849-1124): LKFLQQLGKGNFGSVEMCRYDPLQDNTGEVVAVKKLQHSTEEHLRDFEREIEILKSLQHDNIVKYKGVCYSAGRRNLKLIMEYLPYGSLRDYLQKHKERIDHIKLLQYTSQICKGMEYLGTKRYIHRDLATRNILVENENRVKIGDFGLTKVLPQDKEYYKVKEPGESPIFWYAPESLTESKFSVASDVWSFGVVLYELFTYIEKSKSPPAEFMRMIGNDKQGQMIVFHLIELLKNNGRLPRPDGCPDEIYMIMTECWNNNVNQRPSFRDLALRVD

Row | IC50 [1, 3] | IC50 [2, 4] | Compound | IC50 ([1]; JAK2 IC50, HTRF biochemical assay) | IC50 ([2]; JAK1 IC50, HTRF biochemical assay)
1 | 14 nM | 19 nM | Cc1cc(Nc2nn([C@H]3CCCCC[C@@H]3C#N)c3cc[nH]c(=O)c23)ccc1C(=O)N1CCCC1 (single isomer, unassigned) [Example 15-47, (1S,2S or 1R,2R)-2-(3-{[3-methyl-4-(pyrrolidin-1-ylcarbonyl)phenyl]amino}-4-oxo-4,5-dihydro-1H-pyrazolo[4,3-c]pyridin-1-yl)cycloheptanecarbonitrile] |  | 
2 | 4.8 nM | 1.4 nM | N#C[C@H]1CCCC[C@@H]1n1nc(Nc2ccc(C(=O)N3CCCC3)cc2)c2c(=O)[nH]ccc21 [Example 3-44, (1S,2S)-2-(4-oxo-3-{[4-(pyrrolidin-1-ylcarbonyl)phenyl]amino}-4,5-dihydro-1H-pyrazolo[4,3-c]pyridin-1-yl)cyclohexanecarbonitrile] |  | 
3 |  |  | CC(C)(C)OC(=O)N1[C@@H]2CC[C@H]1C[C@@H](c1ccc(Nc3nn([C@H]4CCCC[C@@H]4C#N)c4cc[nH]c(=O)c34)cc1)C2 (single isomer, unassigned) [Example 3-165] | 7.9 nM | 2.6 nM
4 | 0.83 nM | 0.12 nM | CS(=O)(=O)c1ccc(Nc2nn([C@H]3CCCC[C@@H]3C#N)c3cc[nH]c(=O)c23)cc1 [Example 3-5, (1S,2S)-2-(3-{[4-(methylsulfonyl)phenyl]amino}-4-oxo-4,5-dihydro-1H-pyrazolo[4,3-c]pyridin-1-yl)cyclohexanecarbonitrile] |  | 
5 | 0.55 nM | 0.066 nM | CC(C)(C)OC(=O)CCN1Cc2cc(Nc3nn([C@H]4CCCC[C@@H]4C#N)c4cc[nH]c(=O)c34)ccc2S1(=O)=O [Example 3-150, tert-butyl 3-[5-({1-[(1S,2S)-2-cyanocyclohexyl]-4-oxo-4,5-dihydro-1H-pyrazolo[4,3-c]pyridin-3-yl}amino)-1,1-dioxido-1,2-benzisothiazol-2(3H)-yl]propanoate] |  | 
6 | 11 nM | 0.28 nM | CN(C)[C@@H]1CC[C@H](n2nc(Nc3ccc(Cl)cc3)c3c(=O)[nH]ccc32)[C@@H](C#N)C1 [Example 5-15, (1S,2S,5R)-2-(3-((4-chlorophenyl)amino)-4-oxo-4,5-dihydro-1H-pyrazolo[4,3-c]pyridin-1-yl)-5-(dimethylamino)cyclohexanecarbonitrile] |  | 
7 | 30 nM | 14 nM | Cn1ccc(NC(=O)Cc2cccc(Nc3nn([C@@H]4CCCC[C@H]4C#N)c4cc[nH]c(=O)c34)c2)n1 [Example 3-15, 2-[3-({1-[(1R,2R)-2-cyanocyclohexyl]-4-oxo-4,5-dihydro-1H-pyrazolo[4,3-c]pyridin-3-yl}amino)phenyl]-N-(1-methyl-1H-pyrazol-3-yl)acetamide] |  | 
8 | 0.68 nM | 0.29 nM | CN(C(C)(C)C)S(=O)(=O)c1ccc(Nc2nn([C@H]3CCCC[C@@H]3C#N)c3cc[nH]c(=O)c23)cc1 [Example 3-142, N-tert-butyl-4-({1-[(1S,2S)-2-cyanocyclohexyl]-4-oxo-4,5-dihydro-1H-pyrazolo[4,3-c]pyridin-3-yl}amino)-N-methylbenzenesulfonamide] |  | 
9 | 3.4 nM | 0.47 nM | N#C[C@H]1CCCC[C@@H]1n1nc(Nc2ccc3c(c2)CC(C(=O)O)C3)c2c(=O)[nH]ccc21 (stereo partly drawn) [Example 13-1, 5-((1-((1S,2S)-2-Cyanocyclohexyl)-4-oxo-4,5-dihydro-1H-pyrazolo[4,3-c]pyridin-3-yl)amino)-2,3-dihydro-1H-indene-2-carboxylic acid] |  | 
10 | 3.6 nM | 0.26 nM | N#C[C@H]1CCCC[C@@H]1n1nc(Nc2ccc(-c3nccs3)cc2)c2c(=O)[nH]ccc21 [Example 15-2, (1S,2S)-2-(4-oxo-3-{[4-(1,3-thiazol-2-yl)phenyl]amino}-4,5-dihydro-1H-pyrazolo[4,3-c]pyridin-1-yl)cyclohexanecarbonitrile] |  | 
11 | 0.28 nM | 0.056 nM | CC1(C)Cc2cc(Nc3nn([C@H]4CCCC[C@@H]4C#N)c4cc[nH]c(=O)c34)ccc2S1(=O)=O [Example 21-1, (1S,2S)-2-(3-((2,2-Dimethyl-1,1-dioxido-2,3-dihydrobenzo[b]thiophen-5-yl)amino)-4-oxo-4,5-dihydro-1H-pyrazolo[4,3-c]pyridin-1-yl)cyclohexanecarbonitrile] |  | 
12 | 2.1 nM | 0.41 nM | CCN1Cc2ccc(Nc3nn([C@H]4CCCC[C@@H]4C#N)c4cc[nH]c(=O)c34)cc2C1 [Example 3-76, (1S,2S)-2-{3-[(2-ethyl-2,3-dihydro-1H-isoindol-5-yl)amino]-4-oxo-4,5-dihydro-1H-pyrazolo[4,3-c]pyridin-1-yl}cyclohexanecarbonitrile] |  | 
13 | 0.54 nM | 0.066 nM | N#C[C@H]1CCCC[C@@H]1n1nc(Nc2ccc3c(c2)CN(CC2CC2)S3(=O)=O)c2c(=O)[nH]ccc21 [Example 3-63, (1S,2S)-2-(3-{[2-(cyclopropylmethyl)-1,1-dioxido-2,3-dihydro-1,2-benzisothiazol-5-yl]amino}-4-oxo-4,5-dihydro-1H-pyrazolo[4,3-c]pyridin-1-yl)cyclohexanecarbonitrile] |  | 
14 | 0.27 nM | 0.14 nM | N#C[C@H]1CCCC[C@@H]1n1nc(Nc2ccc(-c3cnco3)cc2)c2c(=O)[nH]ccc21 [Example 15-8, (1S,2S)-2-(3-{[4-(1,3-oxazol-5-yl)phenyl]amino}-4-oxo-4,5-dihydro-1H-pyrazolo[4,3-c]pyridin-1-yl)cyclohexanecarbonitrile] |  | 
15 | 1.2 nM | 0.22 nM | CC(C)(C)OC(=O)[C@H]1CC[C@@H](N2Cc3cc(Nc4nn([C@H]5CCCC[C@@H]5C#N)c5cc[nH]c(=O)c45)ccc3S2(=O)=O)CC1 [Example 15-43, (1S,4S)-tert-butyl 4-(5-((1-((1S,2S)-2-cyanocyclohexyl)-4-oxo-4,5-dihydro-1H-pyrazolo[4,3-c]pyridin-3-yl)amino)-1,1-dioxidobenzo[d]isothiazol-2(3H)-yl)cyclohexanecarboxylate] |  | 
16 | 4.4 nM | 2 nM | CSCc1cc(Cn2ccnn2)cc(Nc2nn([C@H]3CCCC[C@@H]3C#N)c3cc[nH]c(=O)c23)c1 [Example 3-78, (1S,2S)-2-[3-({3-[(methylsulfanyl)methyl]-5-(1H-1,2,3-triazol-1-ylmethyl)phenyl}amino)-4-oxo-4,5-dihydro-1H-pyrazolo[4,3-c]pyridin-1-yl]cyclohexanecarbonitrile] |  | 
17 | 3.8 nM | 2.3 nM | CC(C)(C)OC(=O)NCc1cc(F)cc(Nc2nn([C@H]3CCCC[C@@H]3C#N)c3cc[nH]c(=O)c23)c1 [Example 3-36, tert-butyl [3-({1-[(1S,25)-2-cyanocyclohexyl]-4-oxo-4,5-dihydro-1H-pyrazolo[4,3-c]pyridin-3-yl}amino)-5-fluorobenzyl]carbamate] |  | 
18 | 22 nM | 0.88 nM | N#C[C@H]1C[C@@H](N2CCC2)CC[C@@H]1n1nc(Nc2ccc(C(F)(F)F)cc2)c2c(=O)[nH]ccc21 [Example 5-8, (1S,2S,5S)-5-(azetidin-1-yl)-2-(4-oxo-3-((4-(trifluoromethyl)phenyl)amino)-4,5-dihydro-1H-pyrazolo[4,3-c]pyridin-1-yl)cyclohexanecarbonitrile] |  | 
19 | 14 nM | 0.6 nM | CN(C)[C@H]1CC[C@H](n2nc(Nc3ccc(Cl)c(F)c3)c3c(=O)[nH]ccc32)[C@@H](C#N)C1 [Example 5-2, (1S,2S,5S)-2-(3-((4-Chloro-3-fluorophenyl)amino)-4-oxo-4,5-dihydro-1H-pyrazolo[4,3-c]pyridin-1-yl)-5-(dimethylamino)cyclohexanecarbonitrile] |  | 
20 | 0.61 nM | 0.48 nM | CC(C)[C@@H](C)N1Cc2ccc(Nc3nn([C@H]4CCCC[C@@H]4C#N)c4cc[nH]c(=O)c34)cc2C1 [Example 3-149, (1S,2S)-2-[3-({2-[(1R)-1,2-dimethylpropyl]-2,3-dihydro-1H-isoindol-5-yl}amino)-4-oxo-4,5-dihydro-1H-pyrazolo[4,3-c]pyridin-1-yl]cyclohexanecarbonitrile] |  | 
21 | 0.15 nM | 0.26 nM | Cc1cc(Nc2nn([C@H]3CCCC[C@@H]3C#N)c3cc[nH]c(=O)c23)ccc1C(C)(C)n1nccn1 [Example 15-32, (1S,2S)-2-[3-({3-methyl-4-[1-methyl-1-(2H-1,2,3-triazol-2-yl)ethyl]phenyl}amino)-4-oxo-4,5-dihydro-1H-pyrazolo[4,3-c]pyridin-1-yl]cyclohexanecarbonitrile] |  | 
22 | 0.72 nM | 0.22 nM | N#C[C@H]1CCCC[C@@H]1n1nc(Nc2ccc3c(c2)CNC3C(F)F)c2c(=O)[nH]ccc21 (single isomer, unassigned) [Example 15-27, (1S,2S)-2-(3-{[(1R or 1S)-1-(difluoromethyl)-2,3-dihydro-1H-isoindol-5-yl]amino}-4-oxo-4,5-dihydro-1H-pyrazolo[4,3-c]pyridin-1-yl)cyclohexanecarbonitrile] |  | 
